The nature of data set [1]: Metabolic stability assay, human liver microsome and homogenate incubations. Type of data set: in vitro ADME. Conditions: human liver homogenate or microsomes, LC/PDA/TOF-MS. The procedure: The in vitro metabolic stability of the compounds of the invention was determined for exemplified compounds using human liver microsome and homogenate incubations. The incubation time points used with or without appropriate cofactors were 0 min and 60 min. Samples were collected at both time points and substrates were detected using LC/PDA/TOF-MS. In vitro metabolic stability (% remaining after 60 min in human liver homogenate or microsomes) of the compounds were calculated and the results are summarized in Table 3.
(Microsomes from liver hold many membrane-bound enzymes, among them those of drug oxidation.)

The target in data set [2] is T1, recombinant human 17β-HSD2 (Homo sapiens, UniProt P37059).
T1 construct: made in house; host or cells: Sd9 (Sf9) insect cells, baculovirus (Bac to Bac Expression System); fractionated cell extract
T1 sequence (P37059 1-387): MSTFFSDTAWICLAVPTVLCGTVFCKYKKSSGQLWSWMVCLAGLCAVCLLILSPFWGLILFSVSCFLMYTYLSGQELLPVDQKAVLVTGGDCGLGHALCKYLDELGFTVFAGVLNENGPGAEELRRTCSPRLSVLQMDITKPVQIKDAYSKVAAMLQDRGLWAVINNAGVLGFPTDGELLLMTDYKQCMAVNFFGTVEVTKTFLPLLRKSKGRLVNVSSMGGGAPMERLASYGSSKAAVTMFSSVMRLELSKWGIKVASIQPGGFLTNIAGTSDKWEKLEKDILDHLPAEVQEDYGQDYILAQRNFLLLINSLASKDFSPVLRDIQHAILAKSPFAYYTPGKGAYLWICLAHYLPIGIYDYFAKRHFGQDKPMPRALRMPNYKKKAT
Nature of the data set: Inhibition of recombinant human 17β-HSD2 (conversion of 3H-estradiol to estrone, HPLC). Type of data set: biochemical. Conditions: inhibitor 1 μM; 50 nM estradiol, 1 mM NADH, 30 min at RT. The procedure:
17β-HSD2 production and isolation: Similarly to 17β-HSD1 the Recombinant baculovirus was generated by the “Bac to Bac Expression System” (Invitrogen). Recombinant bacmid was transfected to Sd9 insect cells using “Cellfectin Reagent” (Invitrogen). 60 h later cells were harvested and supernatant were fractionated by the following protocol: • cells were dissolved into 40 ml of A-buffer (40 mM TRIS, pH8.0, 20% glycerol, 20 μM NAD, 0.4 mM PMSF, 150 mM NaCl, 0.5% dodecyl-β-maltoside+protease inhibitor cocktail) • cells were sonicated • lysate was incubated on ice for 15 min • lysate was centrifuged 5000 rpm 15 min, +4° C. • centrifugation of the supernatant 180 000 g 30 min, +4° C. • pellet was dissolved into 8 ml of A-buffer • not resuspended material was removed by centrifugation 5000 rpm 15 min, +4° C. • the clear supernatant was divided into 100 μl aliquots and were stored frozen until determination of enzymatic activity.
The amount of 17β-HSD2 was analysed by immunoblotting and total protein concentration of each extract batch was determined.
Assay—Inhibition of recombinant human 17β-HSD2: Recombinant protein (4 μg/ml) was incubated in 20 mM KH2PO4 pH 8.5 with 50 nM estradiol (including 800 000 cpm/ml of ^3H-estradiol) and 1 mM NADH for 30 min at RT, in the presence of the potential inhibitor at concentrations 1 μM or 0.1 μM. Inhibitor stock solutions were prepared in DMSO. Final concentration of DMSO was adjusted to 1% in all samples. The enzyme reaction was stopped by addition of 10% trichloroacetic acid (final concentration). Samples were centrifuged in a microtiter plate at 4000 rpm for 10 min. Supernatants were applied to reverse phase HPLC on a Waters Symmetry C18 column, equipped with a Waters Sentry Guard column. Isocratic HPLC runs were performed at RT at a flow rate of 1 ml/min in acetonitrile:water 48:52 as running solvent. Radioactivity was monitored in the eluate by a Packard Flow Scintillation Analyzer. Total radioactivity for estrone and estradiol were determined in each sample and percent conversion of estradiol to estrone was calculated according to the following formula:
(§1) Percent inhibition was calculated flowingly: % inhibition=100−% conversion

Data set [3] addresses T2, recombinant human 17β-HSD1 (Homo sapiens, UniProt P14061).
T2 construct: made in house; host or cells: Sd9 (Sf9) insect cells, baculovirus (Bac to Bac Expression System); microsomal fraction
T2 sequence (P14061 1-328): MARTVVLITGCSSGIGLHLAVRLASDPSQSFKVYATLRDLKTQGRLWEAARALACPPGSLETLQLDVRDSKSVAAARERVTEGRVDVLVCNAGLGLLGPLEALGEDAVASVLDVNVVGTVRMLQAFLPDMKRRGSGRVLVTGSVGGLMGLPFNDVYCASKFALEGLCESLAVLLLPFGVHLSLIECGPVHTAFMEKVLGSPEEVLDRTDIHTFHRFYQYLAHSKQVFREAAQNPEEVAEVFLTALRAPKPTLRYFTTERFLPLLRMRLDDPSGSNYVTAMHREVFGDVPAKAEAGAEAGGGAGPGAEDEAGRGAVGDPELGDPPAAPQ
Nature of the data set: Inhibition of recombinant human 17β-HSD1 (conversion of 3H-estrone to estradiol, HPLC). Conditions: inhibitor 1 μM; 30 nM estrone, 1 mM NADPH, 30 min at RT; read-out: 17β-HDS1 Inhibition % at 1 μM. The class given is biochemical. The procedure: 17β-HSD1 production and isolation: Recombinant baculovirus was generated by the “Bac to Bac Expression System” (Invitrogen). Recombinant bacmid was transfected to Sd9 insect cells using “Cellfectin Reagent” (Invitrogen). 60 h later cells were harvested; the microsomal fraction was isolated as described by Puranen, T. J., Poutanen, M. H., Peltoketo, H. E., Vihko, P. T. and Vihko, R. K. (1994) Site-directed mutagenesis of the putative active site of human 17 β-hydroxysteroid dehydrogenase type 1. Biochem. J. 304: 289-293. Aliquots were stored frozen until determination of enzymatic activity.
Assay—Inhibition of recombinant human 17β-HSD1: Recombinant protein (1 μg/ml) was incubated in 20 mM KH2PO4 pH 7.4 with 30 nM estrone (including 800 000 cpm/ml of ^3H-estrone) and 1 mM NADPH for 30 min at RT, in the presence of the potential inhibitor at concentrations 1 μM or 0.1 μM. Inhibitor stock solutions were prepared in DMSO. Final concentration of DMSO was adjusted to 1% in all samples. The enzyme reaction was stopped by addition of 10% trichloroacetic acid (final concentration). Samples were centrifuged in a microtiter plate at 4000 rpm for 10 min. Supernatants were applied to reverse phase HPLC on a Waters Symmetry C18 column, equipped with a Waters Sentry Guard column. Isocratic HPLC runs were performed at RT at a flow rate of 1 ml/min in acetonitrile:water 48:52 as running solvent. Radioactivity was monitored in the eluate by a Packard Flow Scintillation Analyzer. Total radioactivity for estrone and estradiol were determined in each sample and percent conversion of estrone to estradiol was calculated according to the following formula:
as §1

Consider twelve compounds from US20170081357A1, “[…] ACTIVE 17-NITROGEN SUBSTITUTED ESTRATREINTHIAZOLE DERIVATIVES AS INHIBITORS OF 17.BETA-HYDROXYSTEROID DEHYDROGENASE” (FORENDO PHARMA LTD, priority 2013, published 2017).

Structures are written as SMILES.

For the compound `Cc1cnc(NC(=O)CC[C@@H]2C/C(=N\O)[C@@]3(C)CCC4c5cc(C(C)(C)C)c(O)cc5CCC4C23)s1` (stereo partly drawn) [Compound 58, 3-{(13S,15R)-2-tert-Butyl-3-hydroxy-17-[(E)-hydroxyimino]-13-methyl-7,8,9,11,12,13,14,15,16,17-decahydro-6H-cyclopenta[a]phenanthren-15-yl}-N-(5-methylthiazol-2-yl)propanamide], in data set [1], the “In vitro metabolic stability, % remaining after 60 min” value was 100%.

Broadly, the inhibition is the percentage by which the read-out fell short of the control. For the compound `C=CCO/N=C1\C[C@@H](CCC(=O)Nc2ncc(C)s2)C2C3CCc4cc(O)c([N+](=O)[O-])cc4C3CC[C@]12C` (stereo partly drawn) [Compound 108, 3-{(13S,15R)-17-[(E)-Allyloxyimino]-3-hydroxyl-13-methyl-2-nitro-7,8,9,11,12,13,14,15,16,17-decahydro-6H-cyclopenta[a]phenanthren-15-yl}-N-(5-methylthiazol-2-yl)propanamide], the inhibition at 1 µM was found to be 1% in data set [2] and 80% in data set [3].

Consider `Cc1cnc(NC(=O)CC[C@@H]2C/C(=N\OCC(=O)O)[C@@]3(C)CCC4c5ccc(O)cc5CCC4C23)s1` (stereo partly drawn) [Compound 109, [(13S,15R)-3-Hydroxy-13-methyl-15-[2-(5-methylthiazol-2-ylcarbamoyl)-ethyl]-6,7,8,9,11,12,13,14,15,16-decahydro-cyclopenta[a]phenanthren-(17E)-ylideneaminooxy]-acetic acid], for which the inhibition at 1 µM in data set [2] was 0%; in data set [3] it was 56%.

Take `Cc1cnc(NC(=O)CC[C@@H]2C/C(=N\OCC(=O)O)[C@@]3(C)CCC4c5cc(C(C)(C)C)c(O)cc5CCC4C23)s1` (stereo partly drawn) [Compound 110, [(13S,15R)-2-tert-Butyl-3-hydroxy-13-methyl-15-[2-(5-methylthiazol-2-ylcarbamoyl)-ethyl]-6,7,8,9,11,12,13,14,15,16-decahydro-cyclopenta[a]phenanthren-(17E)-ylideneaminooxy]-acetic acid]: the inhibition at 1 µM in data set [2] worked out at 7%; in data set [3], 70%.

Take `Cc1cnc(NC(=O)CC[C@@H]2C/C(=N\OCC(=O)O)[C@@]3(C)CCC4c5cc([N+](=O)[O-])c(O)cc5CCC4C23)s1` (stereo partly drawn) [Compound 111, [(13S,15R)-3-Hydroxy-13-methyl-2-nitro-15-[2-(5-methylthiazol-2-ylcarbamoyl)-ethyl]-6,7,8,9,11,12,13,14,15,16-decahydro-cyclopenta[a]phenanthren-(17E)-ylideneaminooxy]-acetic acid]: the inhibition at 1 µM in data set [2] amounted to 0%; in data set [3], 55%.

For the compound `Cc1cnc(NC(=O)CC[C@@H]2C/C(=N\NC(N)=O)[C@@]3(C)CCC4c5ccc(O)cc5CCC4C23)s1` (stereo partly drawn) [Compound 112, 3-{(13S,15R)-3-Hydroxy-17-[(E)-N-urea-imino]-13-methyl-7,8,9,11,12,13,14,15,16,17-decahydro-6H-cyclopenta[a]phenanthren-15-yl}-N-(5-methylthiazol-2-yl)propanamide], the inhibition at 1 µM was determined as 5% in data set [2] and 83% in data set [3].

For the compound `Cc1cnc(NC(=O)CC[C@@H]2C/C(=N\NC(N)=O)[C@@]3(C)CCC4c5cc(Br)c(O)c(Br)c5CCC4C23)s1` (stereo partly drawn) [Compound 113, 3-{(13S,15R)-2,4-Dibromo-3-hydroxy-17-[(E)-N-urea-imino]-13-methyl-7,8,9,11,12,13,14,15,16,17-decahydro-6H-cyclopenta[a]phenanthren-15-yl}-N-(5-methylthiazol-2-yl)propanamide], the inhibition at 1 µM in data set [2] came to 1%; in data set [3], 58%.

With `Cc1cnc(NC(=O)CC[C@@H]2C/C(=N\O)[C@@]3(C)CCC4c5ccc6ocnc6c5CCC4C23)s1` (stereo partly drawn) [Compound 114, 3-{(7aS,10R)-8-[(E)-Hydroxyimino]-7a-methyl-6,7,7a,8,9,10,10a,10b,11,12-decahydro-5bH-3-oxa-1-aza-dicyclopenta[a,i]phenathren-10-yl}-N-(5-methylthiazol-2-yl)propanamide], the inhibition at 1 µM was found to be 5% in data set [2] and 70% in data set [3].

As to `Cc1cnc(NC(=O)CC[C@@H]2c3conc3[C@@]3(C)CCC4c5cc(Br)c(O)c(Br)c5CCC4C23)s1` (some centres unmarked) [Compound 119], the inhibition at 1 µM in data set [2] is 28%; in data set [3] it was 79%.

On to `Cc1cnc(NC(=O)CC[C@@H]2C/C(=N\CC(C)C)[C@@]3(C)CCC4c5ccc(O)cc5CCC4C23)s1` (stereo partly drawn) [Compound 121, 3-{(13S,15R)-3-Hydroxy-17-[(E)-isobutylimino]-13-methyl-7,8,9,11,12,13,14,15,16,17-decahydro-6H-cyclopenta[a]phenanthren-15-yl}-N-(5-methylthiazol-2-yl)propionamide], for which the values for the inhibition at 1 µM in data set [2] and in data set [3] were 7% and 94%, respectively.

In the case of `COCC/N=C1\C[C@@H](CCC(=O)Nc2ncc(C)s2)C2C3CCc4cc(O)ccc4C3CC[C@]12C` (stereo partly drawn) [Compound 122, 3-{(13S,15R)-3-Hydroxy-17-[(E)-2-methoxy-ethylimino]-13-methyl-7,8,9,11,12,13,14,15,16,17-decahydro-6H-cyclopenta[a]phenanthren-15-yl}-N-(5-methylthiazol-2-yl)propionamide], the inhibition at 1 µM came out at 5% in data set [2] and 94% in data set [3].

Turning to `COCC/N=C1\C[C@@H](CCC(=O)Nc2ncc(C)s2)C2C3CCc4cc(O)c(C(C)(C)C)cc4C3CC[C@]12C` (stereo partly drawn) [Compound 123, 3-{(13S,15R)-2-tert-Butyl-3-hydroxy-17-[(E)-2-methoxy-ethylimino]-13-methyl-7,8,9,11,12,13,14,15,16,17-decahydro-6H-cyclopenta[a]phenanthren-15-yl}-N-(5-methylthiazol-2-yl)propionamide], the figures for the inhibition at 1 µM in data set [2] and in data set [3] were 30% and 94%, respectively.
